In patent US9682047B2, “Augmentation of oncology immunotherapies by pterostilbene containing compositions” (THERAPEUTIC SOLUTIONS INTERNATIONAL, INC., priority 2015, dated 2017):

Key:
[1] = in vivo; cited from earlier work
IFN-gamma = test: Mitogen (Concanavalin A) induced IFN-gamma production by splenocyte mononuclear cells of treated mice, ELISA; type: in vivo; conditions: splenocytes of B16-bearing mice treated as in Example 3, Concanavalin A 5 μg/mL, saline control about 200 ng/mL, FIG. 2
Method: FIG. 2 illustrates the stimulation of mitogen induced IFN-gamma production by pterostilbene in mice. Mice were treated as described in FIG. 1 (from left to right: saline; 25 μg/kg pterostilbene; 500 IU/mouse IL-2; and a combination of IL-2 and pterostilbene at the indicated concentrations). Mononuclear cells were obtained and plated in 96-well plates and treated with Concanavalin A at 5 μg/mL. IFN-gamma was assessed by ELISA. The y-axis is expressed as ng/mL.
Mice from Example 3 where euthanized by cervical dislocation and spleens were excised in a sterile manner. Splenocyte mononuclear cells were obtained by hypotonic lysis and washed 3 times in PBS. Mononuclear cells were plated in 96 well plates and treated with Concanavalin A at 5 μg/mL. Interferon gamma was assessed by ELISA and expressed as ng/mL. […] In contrast, mononuclear cells of mice treated with pterostilbene alone expressed about 900 ng/mL IFN-gamma, and mononuclear cells of mice treated with the combination of pterostilbene and IL-2 expressed about 1500 ng/mL IFN-gamma. As disclosed herein, enhanced expression of IFN-gamma elicits an immune response.

[2] = cited from earlier work
[3] = in vivo; cited from earlier work; remark: listed apart in the source

| SMILES | half-life [1] | IFN-gamma expressed by mononuclear cells (IFN-gamma) | solubility in aqueous solution [2] | systemic bioavailability [3] |
| --- | --- | --- | --- | --- |
| COc1cc(/C=C/c2ccc(O)cc2)cc(OC)c1 [pterostilbene, trans-3,5-dimethoxy-4′-hydroxy-trans-stilbene] | approximately 2 hr | about 900 ng/mL | sparingly soluble |  |
| Oc1ccc(/C=C/c2cc(O)cc(O)c2)cc1 [t-RESV, trans-3,5,4′-trihydroxystilbene] |  |  |  | low |
